Data published in US20080312212A1, “Organic Compounds” (Novartis AG, priority 2005, published 2008).
Structures can show the parent of a compound that is named as a salt.

What follows are compounds tested against T1, epithelial sodium channel (ENaC) (Homo sapiens, UniProt P37088+P51168+P51170) (assay: Short circuit current (ISC) measurements in Human Bronchial Epithelial cells). Details: HBECs at air-liquid interface, Ussing chamber, apical addition; read-out: IC50 (inhibition of the amiloride-sensitive ISC).
T1 construct: host or cells: primary human bronchial epithelial cells (HBECs), differentiated at air-liquid interface
T1 sequence (P37088 1-669): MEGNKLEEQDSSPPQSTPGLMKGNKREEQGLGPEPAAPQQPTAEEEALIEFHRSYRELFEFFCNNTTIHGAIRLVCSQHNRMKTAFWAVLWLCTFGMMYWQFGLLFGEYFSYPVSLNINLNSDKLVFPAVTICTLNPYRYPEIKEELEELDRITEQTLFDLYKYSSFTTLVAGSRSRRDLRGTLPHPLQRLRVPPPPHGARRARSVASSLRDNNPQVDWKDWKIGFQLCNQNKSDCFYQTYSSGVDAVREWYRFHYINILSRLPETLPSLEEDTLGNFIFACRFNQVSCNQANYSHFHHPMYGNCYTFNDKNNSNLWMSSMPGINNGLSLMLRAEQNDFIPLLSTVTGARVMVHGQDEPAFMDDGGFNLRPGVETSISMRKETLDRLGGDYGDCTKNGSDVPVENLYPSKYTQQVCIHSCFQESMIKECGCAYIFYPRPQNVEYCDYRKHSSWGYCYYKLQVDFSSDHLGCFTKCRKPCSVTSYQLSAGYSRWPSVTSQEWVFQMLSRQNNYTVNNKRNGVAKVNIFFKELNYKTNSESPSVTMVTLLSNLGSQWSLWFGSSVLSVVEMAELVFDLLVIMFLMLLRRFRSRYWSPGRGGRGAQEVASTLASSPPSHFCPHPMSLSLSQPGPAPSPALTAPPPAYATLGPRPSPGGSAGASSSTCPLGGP
T1 sequence (P51168 1-640): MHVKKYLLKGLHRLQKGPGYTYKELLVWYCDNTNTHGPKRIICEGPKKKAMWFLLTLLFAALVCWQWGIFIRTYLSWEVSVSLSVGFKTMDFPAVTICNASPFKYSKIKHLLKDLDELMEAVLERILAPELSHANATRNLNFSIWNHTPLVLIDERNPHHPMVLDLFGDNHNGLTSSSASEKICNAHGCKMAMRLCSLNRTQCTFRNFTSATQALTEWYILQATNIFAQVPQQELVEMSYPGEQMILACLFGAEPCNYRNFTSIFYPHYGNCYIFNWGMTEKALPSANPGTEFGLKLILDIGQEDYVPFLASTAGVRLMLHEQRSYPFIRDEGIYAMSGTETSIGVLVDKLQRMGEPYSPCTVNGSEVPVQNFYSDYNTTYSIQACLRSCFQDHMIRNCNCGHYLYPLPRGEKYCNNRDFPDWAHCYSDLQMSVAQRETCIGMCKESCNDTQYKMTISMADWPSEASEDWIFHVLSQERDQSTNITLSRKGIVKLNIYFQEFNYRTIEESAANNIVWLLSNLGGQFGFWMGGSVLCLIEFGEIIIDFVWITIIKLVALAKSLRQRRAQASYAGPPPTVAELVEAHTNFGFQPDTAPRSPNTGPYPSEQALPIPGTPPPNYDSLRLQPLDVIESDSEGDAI
T1 sequence (P51170 1-649): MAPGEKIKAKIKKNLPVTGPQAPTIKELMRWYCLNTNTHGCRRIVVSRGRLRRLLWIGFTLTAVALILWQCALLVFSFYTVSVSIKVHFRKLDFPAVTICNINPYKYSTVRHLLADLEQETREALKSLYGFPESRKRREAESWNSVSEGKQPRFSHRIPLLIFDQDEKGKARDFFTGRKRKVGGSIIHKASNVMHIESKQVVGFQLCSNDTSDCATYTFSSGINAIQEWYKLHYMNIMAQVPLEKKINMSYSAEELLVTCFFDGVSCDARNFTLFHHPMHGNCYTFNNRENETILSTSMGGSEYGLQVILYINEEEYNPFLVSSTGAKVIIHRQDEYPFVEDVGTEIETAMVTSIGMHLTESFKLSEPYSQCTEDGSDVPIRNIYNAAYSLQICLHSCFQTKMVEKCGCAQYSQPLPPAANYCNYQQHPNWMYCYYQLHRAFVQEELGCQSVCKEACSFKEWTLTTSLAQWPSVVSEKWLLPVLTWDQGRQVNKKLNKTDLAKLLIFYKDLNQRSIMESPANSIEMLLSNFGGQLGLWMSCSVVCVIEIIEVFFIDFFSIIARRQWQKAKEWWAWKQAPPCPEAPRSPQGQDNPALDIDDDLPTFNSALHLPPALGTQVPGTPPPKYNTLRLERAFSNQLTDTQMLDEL
Type: cell-based
Experimental: Human Bronchial Epithelial cells (HBECs) (Cambrex) were cultured under air-liquid interface conditions to provide a well differentiated mucociliary phenotype.
HBECs were cultured using a modification of the method described by Gray and colleagues
(Gray et al., 1996). Cells were seeded in plastic T-162 flasks and were grown in bronchial epithelial cell growth medium (BEGM; Cambrex) supplemented with bovine pituitary extract (52 μg/mL), hydrocortisone (0.5 μg/mL), human recombinant epidermal growth factor ([…]), epinephrine (0.5 μg/mL), transferrin (10 μg/mL), insulin (5 μg/mL), retinoic acid (0.1 μg/mL), triiodothyronine ([…]), gentamycin (50 μg/mL) and amphotericin B (50 μg/mL). Medium was changed every 48 hours until cells were 90% confluent. Cells were then passaged and seeded (8.25×10^5 cells/insert) on polycarbonate Snapwell inserts (Costar) in differentiation media containing 50% DMEM in BEGM with the same supplements as above but without triiodothyronine and a final retinoic acid concentration of 50 nM (all-trans retinoic acid). Cells were maintained submerged for the first 7 days in culture, after which time they were exposed to an apical air interface for the remainder of the culture period. At this time, media was changed to DMEM:F12 media containing 2% v/v Ultroser G for the remainder of culture. Amphotericin B was removed from all media 3 feeds prior to use in the Ussing Chambers. Cells were used between days 7 and 21 after establishment of the apical-air interface. At all stages of culture, cells were maintained at 37° C. in 5% CO2 in an air incubator.
Snapwell inserts were mounted in Vertical Diffusion Chambers (Costar) and were bathed with continuously gassed Ringer solution (5% CO2 in O2; pH 7.4) maintained at 37° C. containing (in mM): 120 NaCl, 25 NaHCO3, 3.3 KH2PO4, 0.8 K2HPO4, 1.2 CaCl2, 1.2 MgCl2, and 10 glucose. The solution osmolarity was between 280 and 300 mOsmol/kg H2O for all physiological salt solutions used. Cells were voltage clamped to 0 mV (model EVC4000; WPI). RT was measured by applying a 1- or 2-mV pulse at 30-s intervals and calculating RT by Ohm's law. Data were recorded using a PowerLab workstation (ADInstruments).
Test compounds were prepared as a 10 mM stock solution in DMSO (95%). Serial 3-fold dilutions were freshly prepared in an appropriate vehicle (distilled H2O or Ringers solution). […] At the completion of the concentration-response experiment, amiloride (10 μM) was added into the apical chamber to enable the total amiloride-sensitive current to be measured. […]
Results are expressed as the mean % inhibition of the amiloride-sensitive ISC. […] Cell inserts were typically run in duplicate and the IC50 calculated on the mean % inhibition data.
Work on N=C(NCCCC(=O)N(Cc1ccccc1)[C@H]1CC2CC[C@H](C1)N2Cc1ccccc1)NC(=O)c1nc(Cl)c(N)nc1N [Example 12] yielded an IC50 of 0.0659 µM. N=C(NCCCCNC(=O)Cc1ccccc1)NC(=O)c1nc(Cl)c(N)nc1N [Example 25] was tested, and the IC50 was 0.018 µM. For COC(=O)[C@H](CCCCNC(=N)NC(=O)c1nc(Cl)c(N)nc1N)NS(=O)(=O)c1ccc(C)cc1 [Example 17, (S)-6-[N′-(3,5-Diamino-6-chloro-pyrazine-2-carbonyl)-guanidino]-2-(toluene-4 sulfonylamino)-hexanoic acid methyl ester trifluoroacetate], the IC50 was 0.033 µM. With N=C(NCCCCCCNS(=O)(=O)c1cccc2ccccc12)NC(=O)c1nc(Cl)c(N)nc1N [Example 3] the IC50 was 0.0164 µM.
